Literature values in patent publication US10285382B2 (priority 2017, dated 2019).
Where two headings read alike, the source gives them in different places.

What was measured:
Conditions in all cases: cited from earlier work
shell surface bacteria = test system: shell surface bacteria
Salmonella = test system: Salmonella
broiler eggs = test system: broiler eggs
[1] = dipping eggs in 6% H2O2 solution twice, Padron (1995)

OO [H2O2, hydrogen peroxide]
log reduction in bacterial counts (cfu/egg) (shell surface bacteria; 3% solution combined with ultraviolet light, Wells et al. (2010)): ≤ 3 log | H2O2 concentration required to disinfect shell surfaces (shell surface bacteria; Sheldon and Brake (1991)): 5 % (vol/vol) | treated eggs remaining contaminated (Salmonella; […] solution applied with a vacuum and a surfactant, Cox et al.): 30% | reduction of the number of Salmonella in eggshell membranes (Salmonella; [1]): 95% | reduction of the numbers of positive eggs (Salmonella; [1]): 55% | effect on hatchability (broiler eggs; broiler eggs, […] fogged, Bailey et al. (1996)): did not significantly reduce, or improve | effect on hatchability (broiler eggs; in vivo): no adverse effect
